{"source": "paper PMC8159961", "about": "“Exploring protein hotspots by optimized fragment pharmacophores” (Nature Communications, 2021)", "key": {"human thrombin": {"target": "T1, human thrombin (Homo sapiens, UniProt P00734)", "T1 construct": "human thrombin; purchased Sigma-Aldrich", "test": "Protease inhibitory assay, chromogenic substrate S-2238", "format": "biochemical", "conditions": "for vinit: replicate values; for Ki: Thrombin, one of two values averaged in Supplementary Data 1, read-out: Ki"}, "bovine factor Xa": {"target": "T2, bovine factor Xa (Bos taurus, UniProt P00743)", "T2 construct": "bovine factor Xa, Chromogenix, 2 nkat/mL; purchased Chromogenix", "T2 sequence (P00743 234-492 limits assumed)": "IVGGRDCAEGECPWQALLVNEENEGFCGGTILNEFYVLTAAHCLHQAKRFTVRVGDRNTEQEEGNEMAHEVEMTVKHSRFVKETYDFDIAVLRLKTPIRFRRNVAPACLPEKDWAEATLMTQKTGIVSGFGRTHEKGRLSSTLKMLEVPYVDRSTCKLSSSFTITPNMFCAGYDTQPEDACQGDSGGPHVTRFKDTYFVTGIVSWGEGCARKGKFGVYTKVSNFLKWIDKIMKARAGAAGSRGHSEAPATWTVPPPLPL", "T2 sequence (P00743 41-180 partner limits assumed)": "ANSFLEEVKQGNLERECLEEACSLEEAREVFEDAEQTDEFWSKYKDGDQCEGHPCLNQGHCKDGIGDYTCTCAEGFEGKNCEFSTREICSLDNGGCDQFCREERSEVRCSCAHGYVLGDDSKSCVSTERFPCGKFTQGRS", "test": "Protease inhibitory assay, chromogenic substrate S-2222; as to vinit: unit not given here", "format": "biochemical", "conditions": "FactorXa primary screening, substrate 100 µM, cmpd conc 200 µM; for vinit: replicate values"}, "[1]": {"conditions": "Thrombin primary screening, substrate 40 µM, cmpd conc 500 µM"}, "[2]": {"conditions": "Thrombin Ki determination, substrate 20 µM, cmpd conc 200 µM"}, "[3]": {"conditions": "Thrombin Ki determination, substrate 40 µM, cmpd conc 200 µM"}}, "note": "“And” between values parts separate entries of the source, which are not always exact repeats. Equal entries are not always repeated. Where two headings read alike, the source gives them in different places.", "data": [{"smiles": "c1cnc2c(c1)NCCC2", "note": "[SX-E7]", "values": [{"measurement": "V0 / Vi", "setting": "human thrombin; [1]", "result": 0.93}, {"measurement": "vinit", "setting": "human thrombin; [1]", "result": "33.927 and 32.545"}, {"measurement": "V0 / Vi", "setting": "bovine factor Xa", "result": 0.98}, {"measurement": "vinit", "setting": "bovine factor Xa", "result": "18.836 and 17.745"}]}, {"smiles": "Fc1ccc(CC2CCCNC2)cc1", "note": "(stereo not shown) [SX-C1]", "values": [{"measurement": "V0 / Vi", "setting": "human thrombin; [1]", "result": 0.97}, {"measurement": "vinit", "setting": "human thrombin; [1]", "result": "29.564 and 30.8"}, {"measurement": "V0 / Vi", "setting": "bovine factor Xa", "result": 0.94}, {"measurement": "vinit", "setting": "bovine factor Xa", "result": "18.218 and 18.909"}]}, {"smiles": "Oc1nnc(-c2ccccc2)o1", "note": "[SX-F7]", "values": [{"measurement": "V0 / Vi", "setting": "human thrombin; [1]", "result": 0.99}, {"measurement": "vinit", "setting": "human thrombin; [1]", "result": "31.527 and 31.273"}, {"measurement": "V0 / Vi", "setting": "bovine factor Xa", "result": 1.07}, {"measurement": "vinit", "setting": "bovine factor Xa", "result": "16.182 and 17.345"}]}, {"smiles": "CC1C(=O)NC(=O)N1c1ccc(Cl)cc1", "note": "(stereo not shown) [SX-E3]", "values": [{"measurement": "V0 / Vi", "setting": "human thrombin; [1]", "result": 0.98}, {"measurement": "vinit", "setting": "human thrombin; [1]", "result": "29.964 and 29.673"}, {"measurement": "V0 / Vi", "setting": "bovine factor Xa", "result": 1.01}, {"measurement": "vinit", "setting": "bovine factor Xa", "result": "17.673 and 16.982"}]}, {"smiles": "NC(c1ccccc1)c1ccccc1", "note": "[SX-C3]", "values": [{"measurement": "V0 / Vi", "setting": "human thrombin; [1]", "result": 1.07}, {"measurement": "vinit", "setting": "human thrombin; [1]", "result": "27.818 and 27.309"}, {"measurement": "V0 / Vi", "setting": "bovine factor Xa", "result": 0.95}, {"measurement": "vinit", "setting": "bovine factor Xa", "result": "19.527 and 17.564"}]}, {"smiles": "COc1ccccc1N1CCNCC1", "note": "[SX-A10]", "values": [{"measurement": "V0 / Vi", "setting": "human thrombin; [1]", "result": 0.96}, {"measurement": "vinit", "setting": "human thrombin; [1]", "result": "33.236 and 32.218"}, {"measurement": "V0 / Vi", "setting": "bovine factor Xa", "result": 0.98}, {"measurement": "vinit", "setting": "bovine factor Xa", "result": "14.286 and 15.286"}]}, {"smiles": "Nc1nnc2ccccn12", "note": "[SX-A5]", "values": [{"measurement": "V0 / Vi", "setting": "human thrombin; [1]", "result": 0.99}, {"measurement": "vinit", "setting": "human thrombin; [1]", "result": "30.873 and 29.418"}, {"measurement": "V0 / Vi", "setting": "bovine factor Xa", "result": 0.96}, {"measurement": "vinit", "setting": "bovine factor Xa", "result": 17.929}]}, {"smiles": "O=C(NC1CC1)c1ccccc1O", "note": "[SX-G4]", "values": [{"measurement": "V0 / Vi", "setting": "human thrombin; [1]", "result": 1.01}, {"measurement": "vinit", "setting": "human thrombin; [1]", "result": "31.745 and 33.345"}, {"measurement": "V0 / Vi", "setting": "bovine factor Xa", "result": 0.96}, {"measurement": "vinit", "setting": "bovine factor Xa", "result": "17.5 and 17.8"}]}, {"smiles": "O=C(CN1CCNCC1)c1ccccc1", "note": "[SX-E5]", "values": [{"measurement": "V0 / Vi", "setting": "human thrombin; [1]", "result": 1.06}, {"measurement": "vinit", "setting": "human thrombin; [1]", "result": "28.618 and 27.418"}, {"measurement": "V0 / Vi", "setting": "bovine factor Xa", "result": 0.97}, {"measurement": "vinit", "setting": "bovine factor Xa", "result": "18.286 and 17.357"}]}, {"smiles": "O=C1CNCCN1c1ccccc1", "note": "[SX-B2]", "values": [{"measurement": "V0 / Vi", "setting": "human thrombin; [1]", "result": 1.05}, {"measurement": "vinit", "setting": "human thrombin; [1]", "result": "28.909 and 27.2"}, {"measurement": "V0 / Vi", "setting": "bovine factor Xa", "result": 1.00}, {"measurement": "vinit", "setting": "bovine factor Xa", "result": "17.273 and 17.782"}]}, {"smiles": "Cn1nc(C(F)(F)F)cc1O", "note": "[SX-H6]", "values": [{"measurement": "V0 / Vi", "setting": "human thrombin; [1]", "result": 1.11}, {"measurement": "vinit", "setting": "human thrombin; [1]", "result": "29.345 and 30.109"}, {"measurement": "V0 / Vi", "setting": "bovine factor Xa", "result": 1.13}, {"measurement": "vinit", "setting": "bovine factor Xa", "result": "14.3 and 15.9"}]}, {"smiles": "CC1CCc2sc(C(=O)O)cc2C1", "note": "(stereo not shown) [SX-D9]", "values": [{"measurement": "V0 / Vi", "setting": "human thrombin; [2]", "result": 1.41}, {"measurement": "vinit, avrg.", "setting": "human thrombin; [2]", "result": 18.876}, {"measurement": "vinit", "setting": "human thrombin; [2]", "result": "19.443 and 19.03 and 18.15"}, {"measurement": "V0 / Vi", "setting": "human thrombin; [3]", "result": 1.17}, {"measurement": "vinit, avrg.", "setting": "human thrombin; [3]", "result": 28.950}, {"measurement": "vinit", "setting": "human thrombin; [3]", "result": "33.096 and 26.331 and 27.42"}, {"measurement": "V0 / Vi", "setting": "human thrombin; [1]", "result": 1.40}, {"measurement": "vinit", "setting": "human thrombin; [1]", "result": "23.527 and 20.764"}, {"measurement": "Ki", "setting": "human thrombin; substrate 20 µM, cmpd conc 200 µM", "result": 57, "unit": "µM"}, {"measurement": "Ki", "setting": "human thrombin; substrate 40 µM, cmpd conc 200 µM", "result": 73, "unit": "µM"}, {"measurement": "V0 / Vi", "setting": "bovine factor Xa", "result": 1.04}, {"measurement": "vinit", "setting": "bovine factor Xa", "result": "17.818 and 16.655"}]}, {"smiles": "Cc1nc(-c2ccccc2)cs1", "note": "[SX-A7]", "values": [{"measurement": "V0 / Vi", "setting": "human thrombin; [1]", "result": 0.97}, {"measurement": "vinit", "setting": "human thrombin; [1]", "result": "32.618 and 31.345"}, {"measurement": "V0 / Vi", "setting": "bovine factor Xa", "result": 0.98}, {"measurement": "vinit", "setting": "bovine factor Xa", "result": "17.782 and 18.8"}]}, {"smiles": "CCN(CC)c1cccc(C)c1", "note": "[SX-E4]", "values": [{"measurement": "V0 / Vi", "setting": "human thrombin; [1]", "result": 0.95}, {"measurement": "vinit", "setting": "human thrombin; [1]", "result": "31.418 and 31.2"}, {"measurement": "V0 / Vi", "setting": "bovine factor Xa", "result": 0.95}, {"measurement": "vinit", "setting": "bovine factor Xa", "result": "17.571 and 18.5"}]}]}
